In patent US20250011881A1, “MYC-HSF1 DUAL AMPLIFICATION AS A BIOMARKER FOR CANCER TREATMENT” (The Trustees of Indiana University, priority 2023, published 2025):
Structures can show the parent of a compound that is named as a salt. Where two headings read alike, the source gives them in different places.

Tested on: ovarian cancer cells with (OVCAR8, OVCAR4) or without (OVSAHO, CAOV3) MYC-HSF1 amplification
Experiment: Epigenetic inhibitor drug screen, cell viability (Cell Titer Blue)
Assay type: cell-based
[1] = 10 uM, 48 hrs, average relative cell viability (vs 1% DMSO) of non-amplified cells (OVSAHO, CAOV3) minus that of MYC-HSF1 amplified cells (OVCAR8, OVCAR4), positive = greater response in amplified cells, 10 µM
[2] = 10 uM, 48 hrs, average relative cell viability (vs 1% DMSO) of non-amplified cells (OVSAHO, CAOV3) minus that of MYC-HSF1 amplified cells (OVCAR8, OVCAR4), positive = greater response in amplified cells

Structure (SMILES)	Non Amp - AMP (POC) 10 uM [1] [POC]	Non Amp - AMP (POC) 10 uM [2] [POC]	further results
N[C@@H]1C[C@H]1c1ccccc1 (racemic) [Tranylcypromine (hydrochloride), Tranylcypromine]	0.7437	–	Non Amp - AMP (POC) 10 uM (10 uM, 48 hrs, average relative cell viability (vs 1% DMSO) of non-amplified cells (OVSAHO, CAOV3) minus that of MYC-HSF1 amplified cells (OVCAR8, OVCAR4), positive = greater response in amplified cells, listed as Tranylcypromine hydrochloride, 10 µM): −0.6348 POC
BrC1C(Br)C(Br)C(Br)C(Br)C1Br (centres unmarked) [1,2,3,4,5,6-Hexabromocyclohexane]	–	−13.98	–
O=C(O)c1ccnc(C(=O)O)c1 [2,4-Pyridinedicarboxylic Acid (hydrate), 2,4-Pyridinedicarboxylic Acid]	10.85	–	–
O=C(O)c1ccnc(C(=O)O)c1 [2,4-Pyridinedicarboxylic Acid]	−1.887	–	–
COc1cc2c(cc1O)CC[C@@H]1[C@@H]2CC[C@]2(C)[C@@H](O)CC[C@@H]12 [2-Methoxyestradiol (2-MeOE2), 2-Methoxyestradiol]	–	23.41	–
C#CCC(CCCCCC)C(=O)O (centres unmarked) [2-hexyl-4-Pentynoic Acid]	–	2.599	–
Nc1nccc2c1ncn2[C@@H]1C=C(CO)[C@@H](O)[C@H]1O [3-Deazaneplanocin A (DZNep) hydrochloride]	8.136	–	–
Nc1nccc2c1ncn2[C@@H]1C=C(CO)[C@@H](O)[C@H]1O [3-Deazaneplanocin A]	28.52	–	–
O=c1[nH]cnc2ccccc12 [4-HQN]	–	−1.37	–
O=C(CCCCCCC(=O)Nc1ccc(I)cc1)NO [4-iodo-SAHA]	–	29.5	–
Cn1cc(-c2ccc(S(=O)(=O)n3ccc(/C=C/C(=O)Nc4ccccc4N)c3)cc2)cn1 [4SC-202]	–	15.57	–
Cc1cn([C@H]2C[C@H](O)[C@@H](CO)O2)c(=O)nc1N [5-Methyl-2′-deoxycytidine]	–	−10.37	–
O=Nc1ccc(O)c2ncccc12 [5-Nitroso-8-quinolinol]	9.462	–	–
Nc1nc2nc[nH]c2c(=S)[nH]1 [6-Thioguanine]	12.09	–	–
CCCCC[C@H](O)CC(=O)CCc1ccc(O)c(OC)c1 [6-gingerol]	–	−6.674	–
CCCCCCCCCCCCCC(=O)O[C@@H]1[C@@H](C)[C@@]2(O)[C@@H](C=C(CO)C[C@]3(O)C(=O)C(C)=C[C@@H]23)[C@@H]2C(C)(C)[C@]12OC(C)=O [12-O-tetradecanoyl phorbol-13-acetate]	–	–	Non Amp - AMP (POC) 10 uM: −2.545 POC
O=C([O-])[C@@]1(CCCCCCOc2ccc(Cl)cc2)CO1.[Na+] [(R)-(+)-Etomoxir sodium salt]	–	3.941	–
Cl.O=C([C@@H](Cc1cccc(C(F)(F)F)c1)NS(=O)(=O)c1cc(F)c2c(c1)CCNC2)N1CCCC1 [(R)-PFI-2 (hydrochloride)]	19.35	–	–
Clc1cc2c(NC3CCCC3)nnc(-c3ccncc3)c2cc1Cl [A-196]	–	2.334	–
COc1cc2c(cc1OCCCN1CCCC1)N=C(N)C21CCC1 [A-366]	11.91	–	Non Amp - AMP (POC) 10 uM (10 uM, 48 hrs, average relative cell viability (vs 1% DMSO) of non-amplified cells (OVSAHO, CAOV3) minus that of MYC-HSF1 amplified cells (OVCAR8, OVCAR4), positive = greater response in amplified cells, listed as A 366, 10 µM): 3.68 POC
N#Cc1c(O)c2c(-c3ccc(-c4ccccc4O)cc3)csc2[nH]c1=O [A-769662]	–	−2.694	–
NC(=O)c1cccc2[nH]c(-c3ccc([C@@H]4CCCN4)cc3F)nc12 [A-966492]	–	13.6	–
O=C(NCc1ccncc1)C12CC3CC(C1)CC(c1ccc(Cl)cc1)(C3)C2 [ABC294640]	–	4.657	–
C[C@]1(c2nc3c(C(N)=O)cccc3[nH]2)CCCN1 [ABT-888 (Veliparib), Veliparib]	−1.058	–	–
O=C(CCCCCCNC(=O)c1cnc(N(c2ccccc2)c2ccccc2Cl)nc1)NO [ACY-241]	–	35.17	–
N#C/C(=C/c1ccc(O)c(O)c1)C(=O)NCc1ccccc1 [AG-490]	–	−10.83	–
CN(C)Cc1ccc(-c2nc3cccc4c3n2CCNC4=O)cc1 [AG-14361]	–	0.2059	–
N#C/C(=C\c1ccc(-c2cc(Cl)ccc2Cl)o1)C(=O)Nc1cccc2ncccc12 [AGK 2]	24.17	–	Non Amp - AMP (POC) 10 uM (10 uM, 48 hrs, average relative cell viability (vs 1% DMSO) of non-amplified cells (OVSAHO, CAOV3) minus that of MYC-HSF1 amplified cells (OVCAR8, OVCAR4), positive = greater response in amplified cells, listed as AGK2, 10 µM): 19.96 POC
NC(=O)c1ncn([C@@H]2O[C@H](CO)[C@@H](O)[C@H]2O)c1N [AICAR]	–	–	Non Amp - AMP (POC) 10 uM: 11.27 POC
